According to patent US20020068360A1, “Cyclohexanediol cryoprotectant compounds” (priority 2000, published 2002):

Test system: AV5 cells
Assay: Cell viability (Alamar Blue) of AV5 cells after cryopreservation and warming
Assay type: cell-based, porcine
Conditions: 0 to 1 M CHD added to 1 M DMSO or to DMSO/formamide/propanediol (final 1 M), normalized to conventional cryoprotectant alone, FIGS. 2 and 3
Procedure: A primary cell strain called AV5 was used for these experiments. AV5 cells are derived from porcine heart valve leaflets. Hearts were obtained from pigs and the heart valve leaflets were then removed and washed several times with sterile phosphate-buffered saline (PBS). Small pieces (˜1 mm^2) were cut and placed into a 24-well microtiter plate coated with 0.2% gelatin. Dulbecco's Modified Eagle's Medium (DMEM) with 10% fetal calf serum (FCS) was added to just cover the bottom of the well and the plate was left at 37° C. with 5% CO2 in air until visible outgrowth occurred. […]
Cell viability was then determined using the non-invasive metabolic indicator Alamar Blue (Trek Diagnostics). […] Fluorescence from Alamar Blue was read in a fluorescent microplate reader (Fmax fluorescent microplate reader by […]) using an excitation wavelength of 544 nm and an emission wavelength of 590 nm.
The first set of experiments involved using two CPA compositions, either 1 M dimethyl sulfoxide (DMSO) (left bar of graph at each concentration of 1,3CHD in FIG. 2 and 1,4CHD in FIG. 3) or a combination of DMSO, formamide and propanediol at a final concentration of 1 M (right bar of graph at each concentration of 1,3CHD in FIG. 2 and 1,4CHD in FIG. 3). […] Cell viability was assessed using the assay described above. […]

Row | Structure (SMILES) | relative cell viability after freezing
1 | OC1CCCC(O)C1 (centres unmarked) [1,3CHD, 1,3-cyclohexanediol] | significantly increased
2 | OC1CCC(O)CC1 (centres unmarked) [1,4CHD, 1,4-cyclohexanediol] | significantly increased
